The values that follow come from patent US20140363425A1, “SYSTEMS AND METHODS FOR I[…] HAVING ACTIVATED PR[…]” (priority 2013, published 2014).

The target in test [1] is T1, PR (Homo sapiens, UniProt P06401).
T1 sequence (P06401 1-933): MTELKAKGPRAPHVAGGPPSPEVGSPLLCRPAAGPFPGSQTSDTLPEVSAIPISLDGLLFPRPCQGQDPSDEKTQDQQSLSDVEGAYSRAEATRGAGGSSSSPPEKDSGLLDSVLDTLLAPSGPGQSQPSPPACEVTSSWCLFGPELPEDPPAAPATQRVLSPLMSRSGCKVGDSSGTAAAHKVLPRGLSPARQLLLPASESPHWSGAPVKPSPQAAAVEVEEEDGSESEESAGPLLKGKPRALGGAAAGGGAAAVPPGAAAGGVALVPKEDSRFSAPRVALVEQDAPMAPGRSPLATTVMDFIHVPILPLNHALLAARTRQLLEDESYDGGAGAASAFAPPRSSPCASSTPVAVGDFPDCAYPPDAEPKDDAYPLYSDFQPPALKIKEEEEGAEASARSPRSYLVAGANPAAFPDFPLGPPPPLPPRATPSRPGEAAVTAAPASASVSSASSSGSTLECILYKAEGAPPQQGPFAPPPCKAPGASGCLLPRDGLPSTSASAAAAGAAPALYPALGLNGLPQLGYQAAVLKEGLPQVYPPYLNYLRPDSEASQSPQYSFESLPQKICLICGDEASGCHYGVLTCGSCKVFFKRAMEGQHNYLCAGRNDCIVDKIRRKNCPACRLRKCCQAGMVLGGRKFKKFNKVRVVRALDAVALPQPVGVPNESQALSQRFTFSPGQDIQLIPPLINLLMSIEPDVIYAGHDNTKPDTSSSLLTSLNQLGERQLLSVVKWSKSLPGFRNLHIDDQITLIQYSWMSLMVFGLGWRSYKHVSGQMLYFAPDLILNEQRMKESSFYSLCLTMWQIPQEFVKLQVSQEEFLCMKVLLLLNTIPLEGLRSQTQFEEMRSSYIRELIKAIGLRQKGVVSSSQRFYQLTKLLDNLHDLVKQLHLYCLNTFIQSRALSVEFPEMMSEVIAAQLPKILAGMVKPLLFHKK
As to conditions: cited from earlier work.

The target of test [2] is T1, PR. Format: cell-based. The arrangement: endogenous in cells; host or cells: T-47D. The settings on record: T-47D breast cancer cells, 10 nM, 45 minutes, false discovery rate 0.27%. The procedure: (§1) In one aspect, PR genomic interactions were mapped in T-47D breast cancer cells and in the AB32 cell line: a stable PR expressing clone of the MCF-10A immortalized normal breast cell line. Cells were treated with the progestin ORG2058 (10 nM, 45 minutes), followed by PR-chromatin immunoprecipitation (ChIP) and Illumina sequencing. Sequences were aligned to the human genome and genomic regions enriched in the alignments were identified using the Bowtie and ERANGE [38] software tools (false discovery rate 0.27%).
(§2) Cells were cultured to 80% confluency in 15 cm tissue culture dishes, then treated for 45 minutes with 10 nM ORG2058 or vehicle. Chromatin was subsequently cross-linked by the addition of formaldehyde to the culture medium to a final concentration of 1% and incubation for 10 minutes at 37° C. Media were immediately removed and the cells were washed with cold phosphate buffered saline and harvested by scraping. Cells were collected by centrifugation and pellets were lysed 10 minutes at 4° C. in SDS buffer (1% SDS; 10 mM EDTA; 50 mM Tris-HCl, pH 8). The lysates were sonicated at 4° C. with a Branson 450 sonicator, using seven one minute bursts at 40% amplitude and 60% duty, each separated by a rest of at least one minute. Lysates were centrifuged at 13,000×g at 4° C. for 15 minutes to remove debris. […]

The subject of the next test is AB32 cells. Nature of the test: Whole genome gene expression microarray in AB32 cells. In kind it is cell-based, human. The settings on record: 10 nM, 2, 6 and 24 h. The procedure:
(§3) Total RNA was isolated using RNAqueous purification columns (Invitrogen). Total RNA (500 ng) was amplified and biotin labelled using Illumina TotalPrep reagents (Invitrogen). The amplified samples (750 ng) were hybridized to human whole genome HT-12 gene expression bead arrays using the recommended Illumina reagents and following the manufacturer's protocol. Raw data were analysed using Genome Studio software (Illumina). After background subtraction data and cubic spline normalization, differential expression p values were determined using the Illumina custom model of Genome Studio. Data were further analysed using Microsoft Excel and SPSS statistical software. Hierarchical clustering and self organizing map clustering were performed using GenePattern.
In reference to FIG. 3B, T-47D and AB32 cells were treated with 10 nM ORG2058 (ORG) or vehicle for 2, 6 and 24 h. Transcript expression was measured by whole genome microarray. Genes that were differentially expressed in ORG2058 treated samples relative to the untreated control at one or more time point in T-47D or AB32 cells were compared by unsupervised hierarchical cluster analysis. Red—increased expression, green—decreased expression relative to vehicle treated control.
In reference to FIG. 10, progestin regulated transcripts were identified in AB32 cells at 2, 6 and 24 h treatment with 10 nM ORG2058 by gene expression profiling. […]

Test [3] concerns PR. Format: cell-based, human. The settings on record: AB32 cells (PR expressing clone of MCF-10A), 10 nM, 45 minutes, false discovery rate 0.27%. The procedure: as §1, §2
Another test relates to T-47D cells. Nature of the test: Whole genome gene expression microarray in T-47D cells. Format: cell-based, human. As to conditions: 10 nM, 2, 6 and 24 h, self-organizing map clustering. The procedure: as §3
(A and B) Overlap between PR binding regions and progestin regulated genes in (A) T-47D and (B) AB32 cells. (C and D) PR binding regions within 10 kb or in the 5′-UTR of genes regulated at 2, 6 and 24 h in (C) T-47D and (D) AB32 cells. (E) Genes with patterns of progestin regulation in T-47D cells that grouped together were identified by SOM cluster analysis using Gene Pattern. […]
In reference to FIG. 3B, T-47D and AB32 cells were treated with 10 nM ORG2058 (ORG) or vehicle for 2, 6 and 24 h. Transcript expression was measured by whole genome microarray. […]

Structures are written as SMILES.

`CC(=O)[C@H]1CC[C@H]2[C@@H]3CCC4=CC(=O)CC[C@]4(C)[C@H]3CC[C@]12C` [progesterone]: the “dissociation from PR compared with ORG2058” value at PR [1] is on record as “dissociates from PR more rapidly”.

With `CC[C@@H]1C[C@H]2[C@@H]3CCC4=CC(=O)CC[C@@H]4[C@H]3CC[C@]2(C)[C@H]1C(=O)CO` [ORG2058, (8R,9S,10R,13S,14S,16R,17S)-16-ethyl-17-(2-hydroxyacetyl)-13-methyl-2,6,7,8,9,10,11,12,14,15,16,17-dodecahydro-1H-cyclopenta[a]phenanthren-3-one], the “peaks of PR binding identified” value at PR [2] stood at 6312. Besides, the “direction of transcript regulation” value with AB32 cells is reported as “more transcripts were decreased than increased”. Also, in the test with PR [3], the “PR binding regions detected” value is recorded as 8117. Also, in the test on T-47D cells, the “cluster of transcripts decreased at all time points, beginning to return toward basal levels at 24 h” value came out at 26.
